{"source": "patent US12215069B2", "about": "“Sirtuin modulating compounds and applications thereof” (Codagen Biosciences, Inc., priority 2022, dated 2025)", "key": {"Sirt3 [1]": {"target": "T1, Sirt3 (Homo sapiens, UniProt Q9NTG7)", "T1 construct": "The hSirt3^118-399 was purchased from Xtal Biostructures (Natick, MA); purchased Xtal Biostructures (Natick, MA)", "T1 sequence (Q9NTG7 118-399)": "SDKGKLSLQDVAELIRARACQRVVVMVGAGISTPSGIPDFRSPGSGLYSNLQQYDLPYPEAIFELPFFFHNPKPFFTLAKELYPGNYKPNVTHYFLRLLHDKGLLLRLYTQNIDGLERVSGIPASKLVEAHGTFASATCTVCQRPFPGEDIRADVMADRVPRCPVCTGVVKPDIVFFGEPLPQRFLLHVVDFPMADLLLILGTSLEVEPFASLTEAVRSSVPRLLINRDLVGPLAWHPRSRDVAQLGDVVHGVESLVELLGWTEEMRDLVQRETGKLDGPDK", "experiment": "Fluorescence-based (FdL) assay of Sirt3 deacylation activity under steady state conditions", "type": "biochemical", "details": "for remaining activity at 1 µM: compound 1 μM; for remaining activity at 1 µM / remaining activity at 10 µM: read-out: % Control, Sirt3 deacylation activity; for remaining activity at 10 µM: compound 10 μM; for % Control, Sirt3 deacylation activity: compound 50 μM or maximum", "source_text": "(§1) FdL2 (QPKK^AC-AMC) peptide, also called p53-AMC peptide, was purchased from Enzo Life Sciences (Farmingdale, NY). Carba-NAD was synthesized by Dalton Pharma (Toronto, ON). The hSirt3^118-399 was purchased from Xtal Biostructures (Natick, MA). Virtual screening hits were supplied from ChemBridge Corp. (San Diego, CA).\n(§2) Effect of Hit Compounds on hSirt3^118-399 Deacetylation Activity"}, "Sirt3 [2]": {"target": "T1, Sirt3", "experiment": "HPLC assay of Sirt3 deacylation activity under non-steady state conditions", "type": "biochemical", "details": "compound 10 μM, 2 minute time point, read-out: % Control (10 μM), Sirt3 deacylation activity", "source_text": "as §1, §2"}}, "data": [{"smiles": "C=C(CC)C(=O)c1ccc(OCC(=O)N[C@H](Cc2ccc(Cl)cc2)C(=O)NCCCC)c(Cl)c1Cl", "note": "[FIG. 1, (2R)—N-butyl-3-(4-chlorophenyl)-2-[[2-[2,3-dichloro-4-(2-methylenebutanoyl)phenoxy]acetyl]amino]propanamide]", "values": [{"measurement": "remaining activity at 1 µM", "setting": "Sirt3 [1]", "result": "95.7 ± 2.6", "unit": "%"}, {"measurement": "remaining activity at 10 µM", "setting": "Sirt3 [1]", "result": "82.8 ± 2.3", "unit": "%"}, {"measurement": "% Control, Sirt3 deacylation activity", "setting": "Sirt3 [1]", "result": "73.6 ± 2.4", "unit": "%"}, {"measurement": "remaining activity at 10 µM", "setting": "Sirt3 [2]; [E]0/[NAD+]0 = 0.3, 50 μM NAD+", "result": "104 ± 3.3", "unit": "%"}, {"measurement": "remaining activity at 10 µM", "setting": "Sirt3 [2]; [E]0/[NAD+]0 = 0.6, 50 μM NAD+", "result": "107 ± 1.6", "unit": "%"}]}, {"smiles": "C=C(CC)C(=O)c1ccc(OCC(=O)NC2c3ccccc3CCc3cc(OCC(=O)NCCCC)ccc32)c(Cl)c1Cl", "note": "(centres unmarked) [FIG. 28]", "values": [{"measurement": "remaining activity at 1 µM", "setting": "Sirt3 [1]", "result": "80.4 ± 3.1", "unit": "%"}, {"measurement": "remaining activity at 10 µM", "setting": "Sirt3 [1]", "result": "75.5 ± 2.3", "unit": "%"}, {"measurement": "% Control, Sirt3 deacylation activity", "setting": "Sirt3 [1]", "result": "68.7 ± 4.0", "unit": "%"}]}]}
